# According to PMC11382315 (Heliyon, 2024):
# Key:
# [1] = system: primary human thyrocytes; test: Observed cytotoxic effects in stimulated primary human thyrocytes; type: cell-based; settings: two doses: 10 and 40 μM (β-sitosterol 50 and 150 μM)
# [2] = target: T1, HSP90AA1 (Homo sapiens, UniProt P07900); test: Microscale thermophoresis; type: binding
# [3] = target: T1, HSP90AA1; test: Limited proteolysis-mass spectrometry; type: binding; settings: lysate of dsDNA/dsRNA-stimulated primary human thyrocytes, 0.33 nmol/μg total protein
Structure (SMILES),Kd [2],"KD (affinity with HSP90AA1) ([2]; His-tag labeled HSP90AA1 50 nM, ligand 30 nM to 1 mM, PBS)",cytotoxic effects [1],interaction with HSP90AA1 by Lip-MS [3]
O=c1c(O)c(-c2ccc(O)cc2O)oc2cc(O)cc(O)c12 [morin],123 µM,–,without observed cytotoxic effects,identified as a common interacting protein target
O=c1c(O)c(-c2ccc(O)c(O)c2)oc2cc(O)cc(O)c12 [quercetin],–,–,without observed cytotoxic effects,identified as a common interacting protein target
CC[C@H](CC[C@@H](C)[C@H]1CC[C@H]2[C@@H]3CC=C4C[C@@H](O)CC[C@]4(C)[C@H]3CC[C@]12C)C(C)C [β-sitosterol],–,no binding affinity,without observed cytotoxic effects,–

# Continued, in another order:
Kd [2],"KD (affinity with HSP90AA1) ([2]; His-tag labeled HSP90AA1 50 nM, ligand 30 nM to 1 mM, PBS)",Structure (SMILES),cytotoxic effects [1],interaction with HSP90AA1 by Lip-MS [3]
169 µM,–,O=c1c(O)c(-c2ccc(O)cc2)oc2cc(O)cc(O)c12 [kaempferol],without observed cytotoxic effects,–
294 µM,–,O=c1cc(-c2ccc(O)c(O)c2)oc2cc(O)cc(O)c12 [luteolin],–,identified as a common interacting protein target
